Results on two compounds are retold here after patent US20070078143A1, “Method for preparing Ziprasidone monohydrochloride-hydrate” (Wockhardt Limited, priority 2003, published 2007).

Each structure is given as a SMILES string. Structures can show the parent of a compound that is named as a salt.

The nature of series [1]: Moisture re-absorption of the dried (anhydrous) salt on exposure to humidity. The conditions noted are these: after prolonged drying to anhydrous (moisture content up to 0.7% by weight); exposed at 60% relative humidity. The format is physicochemical. The source says:
Anhydrous Ziprasidone monohydrochloride is disclosed in U.S. Pat. No. 5,312,925. The Ziprasidone monohydrochloride-hydrate of the present invention can be made anhydrous having moisture content up to 0.7% by weight, after prolonged drying. It has been observed that the compound re-absorbs moisture up to 6% when it is exposed at 60% relative humidity.

Series [2] is described as follows: Solubility in common organic solvents. The series is classed as physicochemical. The procedure: Therefore, another objective of the present invention is to find a suitable solvent or solvent mixture to purify crude Ziprasidone base to obtain the required purity with minimal loss of material. The crude Ziprasidone obtained from step (a) is dissolved in a mixture of tetrahydrofuran and N,N-dimethylformamide (7:3, v/v) with activated charcoal and heated to clarify the solution. The solution obtained is filtered, washed with a cold solvent mixture of THF and DMF and dried. The dried Ziprasidone is obtained in 99% HPLC purity.

As to `O=C1Cc2cc(CCN3CCN(c4nsc5ccccc45)CC3)c(Cl)cc2N1` [Ziprasidone monohydrochloride-hydrate, 5-(2-(4-1,2-benzisothiazol-3-yl)piperazinyl)ethyl)-6-chloro-1,3-dihydro-2H-indol-2-one Monohydrochloride-hydrate], the moisture re-absorbed entry in series [1] is given as “up to 6%”.

Take `O=C1Cc2cc(CCN3CCN(c4nsc5ccccc45)CC3)c(Cl)cc2N1` [Ziprasidone, 5-(2-(4-(1,2-benzisothiazol-3-yl)-1-piperazinyl)ethyl)-6-chloro-1,3-dihydro-2H-indole-2-one]: in series [2], the “solubility in most of the common organic solvents” value is given as “poor solubility”.
